Experimental data from publication PMC5297413, “C-terminus Methionene Specifically Involved in Binding Corn Odorants to Odorant Binding Protein4 in Macrocentrus cingulum” (Frontiers in Physiology, 2017).
“Also recorded” adds a separate entry of the source. Where two headings read alike, the source gives them in different places.

Legend:
McinOBP4-Wt [1] = target: T1, McinOBP4-Wt (Macrocentrus cingulum, UniProt A0A1S6PU99); test: Competitive binding assay with 1-NPN as fluorescent reporter, McinOBP4-Wt
Description: (§1) One cm light path fluorimeter quartz cuvette was used on a FluoroMax-4 (Horiba Scientific, USA) spectrophotometer at room temperature for fluorescence spectra recording and excitation wavelength of 337 nm was chosen and 300–500 nm for the emission with a 5 nm slit width. Spectra were recorded with 2 μM McinOBP4 in 50 mM Tris-HCl of different pH value, while ligands were added as 1 mM methanol solutions.
The probe was excited at 337 nm and emission spectra were recorded between 300 and 500 nm.
(§2) It was assumed that McinOBP4 was 100% active and the protein-ligand binding was 1:1 ratio at saturation. The obtained data were processed with Graphpad Prism software (Graphpad Software, Inc.) and using a software package SPSS Version 16 (http://www.spss.com). The maximum intensity values of emission were plotted against the 1-NPN concentration for the KD determination, and the values of intensity were used for the evaluation the bound ligands. The curve was linearized using Scatchard Plots to verify the confidence of KD.

McinOBP4-M2 [2] = target: T2, McinOBP4-M2 (Macrocentrus cingulum, UniProt A0A1S6PU99, M141L); test: Fluorescence binding of 1-NPN to mutant McinOBP4-M2 (Met119 replaced by Leu); settings: McinOBP4-M2, pH 7.4; read-out: Dissociation constant (KD) of 1-NPN
T2 sequence (A0A1S6PU99 23-142 M141L): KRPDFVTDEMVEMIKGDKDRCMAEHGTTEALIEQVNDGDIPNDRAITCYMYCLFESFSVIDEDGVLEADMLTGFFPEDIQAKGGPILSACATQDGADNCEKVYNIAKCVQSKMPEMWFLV
Description: (§3) The C-terminal tail truncated form of the McinOBP4 was obtained by removing the last 8 amino acids and inserting a stop codon after Leu112. The McinOBP4-Wt/pGEM-T Easy construct was used as a template. A pair of primer was designed manually and as listed sense primer 5′- […] -3′ (underlined with BamHI) and antisense primer, 5′- […] -3′ (underlined with HindIII) where 113th position residues used as a stop codon. The mutant M2 (Met119) was prepared along with the pair of primer as sense primer 5′- […] -3′ (under lined with BamHI), and antisense primere 5′- […] -3′ (under lined with HindIII). […]
as §1, with “solutions. […]” for “solutions.”
(§4) It was assumed that McinOBP4 was 100% active and the protein-ligand binding was 1:1 ratio at saturation. […] IC50 for other corn odorants were calculated using with Microsoft excel 2010, and the equation, KD = [IC50]/[1+(1–NPN)/K1−NPN] was used for the KD values calculation. […]

McinOBP4-Wt [3] = target: T1, McinOBP4-Wt; test: Fluorescence binding of 1-NPN to McinOBP4-Wt
Description: as §1
To measure the affinity of the fluorescence ligand N-phenyl-1-naphthylamine (1-NPN) to McinOBP4-wt and mutants, a 2 μM solution of the protein in 50 mM Tris-HCl, pH 7.4, was titrated with aliquots of 1 mM ligand in high-performance liquid chromatography (HPLC) purity grade methanol to final concentrations of 2–20 μM. The probe was excited at 337 nm and emission spectra were recorded between 300 and 500 nm. While the other competitor were measured in competitive binding assays, where 1-NPN using as the fluorescent reporter at 2 μM concentration and each competitor (odorants) over concentration ranges 2–14 μM, depending on the different odorants.
as §2, with “KD. IC50 for other corn odorants were calculated using with Microsoft excel 2010, and the equation, KD = [IC50]/[1+(1–NPN)/K1−NPN] was used for the KD values calculation. In this equation [IC50] stands for the ligand concentration where the ligand quenching the fluorescence intensity of 1-NPN to 50%, [1-NPN] and K1−NPN mean free 1-NPN concentration and McinOBP4/1-NPN complex KD values, respectively (Campanacci et al., [2001]; Ban et al., [2002]).” for “KD.”

McinOBP4-M1 = target: T3, McinOBP4-M1 (Macrocentrus cingulum, UniProt A0A1S6PU99); test: Fluorescence binding of 1-NPN to C-terminal truncated mutant McinOBP4-M1
T3 sequence (A0A1S6PU99 23-134): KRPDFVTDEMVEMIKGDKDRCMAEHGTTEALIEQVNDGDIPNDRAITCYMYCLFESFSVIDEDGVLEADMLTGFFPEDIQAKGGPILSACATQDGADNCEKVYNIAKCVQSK
Description: as §3
as §1, with “solutions. […]” for “solutions.”
as §4

McinOBP4-M2 [4] = target: T2, McinOBP4-M2; test: Competitive binding assay with 1-NPN as fluorescent reporter, McinOBP4-M2; settings: compared to wild type and M1
[5] = recombinant McinOBP4-Wt, pH = 7.4, calculated from IC50, read-out: KD
[6] = recombinant McinOBP4-Wt, pH = 7.4, displacement of 1-NPN, read-out: IC50
[7] = McinOBP4-Wt, pH 7.4, read-out: KD

T1 sequence (A0A1S6PU99 entry or part of it): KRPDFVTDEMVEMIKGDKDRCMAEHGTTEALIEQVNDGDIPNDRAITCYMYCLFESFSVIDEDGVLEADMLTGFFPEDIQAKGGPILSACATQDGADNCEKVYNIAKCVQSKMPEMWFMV

Compound	Kd (McinOBP4-Wt [1]; [5])	IC50 (McinOBP4-Wt [1]; [6])	IC50 (McinOBP4-Wt [1])	Kd (McinOBP4-Wt [1])	also measured
c1ccc(Nc2cccc3ccccc23)cc1 [1-NPN, N-phenyl-1-naphthylamine]					Kd (McinOBP4-M2 [2]): 8.85 ± 0.63 µM; Affinity of 1-NPN in acidic condition (McinOBP4-Wt [3]; acidic condition (pH 4.4)): did not observe significant loss of binding activity; Affinity of 1-NPN in basic condition (McinOBP4-Wt [3]; basic condition): increase in basic condition; also recorded: increase in affinity; Kd (McinOBP4-Wt [3]; pH 7.4, read-out: Dissociation constant (KD) of 1-NPN): 5.69 ± 0.83 µM; Affinity of 1-NPN in basic condition (McinOBP4-M1; McinOBP4-M1, basic condition): increase in basic condition; also recorded: increase in affinity; Kd (McinOBP4-M1; McinOBP4-M1, pH 7.4, read-out: Dissociation constant (KD) of 1-NPN): 6.99 ± 0.59 µM
CC/C=C\CCO [Cis-3-Hexen-1-ol]			19.9 µM	15.5 µM	
C=C(C)[C@H]1CC=C(C)CC1 [Limonene]	4.12 µM	5.29 µM			Kd (McinOBP4-Wt [1]; [7]): 4.12 ± 0.7 µM; Binding affinity to McinOBP4-M2 compared to wild type and first mutant (McinOBP4-M2 [4]): lower binding affinities; also recorded: much weaker
C=CC(C)(O)CCC=C(C)C (centres unmarked) [Linalool]			12.3 µM	9.61 ± 0.23 µM	Binding affinity to McinOBP4-M2 compared to wild type and first mutant (McinOBP4-M2 [4]): lower binding affinities; also recorded: much weaker
CCC/C=C/C=O [Trans-2-Hexen-1-al]			16.4 µM	12.8 µM	
CCC/C=C/CO [Trans-2-Hexen-1-ol]			19.8 µM	15.4 µM	
CCCCC/C=C/C=O [Trans-2-Octenal]	11.9 µM	15.3 µM			Kd (McinOBP4-Wt [1]; [7]): 11.8 ± 0.57 µM; Binding affinity to McinOBP4-M2 compared to wild type and first mutant (McinOBP4-M2 [4]; listed as trans-2-octanal): lower binding affinities; also recorded: much weaker
CC/C=C/CCOC(C)=O [Trans-3-Hexen-1-ol-Acetate]	6.99 µM	8.98 µM			Kd (McinOBP4-Wt [1]; [7]): 6.99 ± 1.23 µM; Binding affinity to McinOBP4-M2 compared to wild type and first mutant (McinOBP4-M2 [4]): lower binding affinities; also recorded: much weaker
CC(=O)/C=C/C1C(C)=CCCC1(C)C (stereo not drawn) [α-Ionone]			24.1 µM	18.7 µM	
CC1=CCC2CC1C2(C)C (stereo not drawn) [α-Pinene]			34.2 µM	26.6 µM	
CC(=O)/C=C/C1=C(C)CCCC1(C)C [β-Ionone]			15.1 µM	11.8 µM	Binding affinity to McinOBP4-M2 compared to wild type and first mutant (McinOBP4-M2 [4]): lower binding affinities; also recorded: much weaker
C=C1CCC2CC1C2(C)C (stereo not drawn) [β-Pinene]			18.8 µM	14.7 µM	
Hexenal	26.9 µM	34.6 µM			

Continued, in another order:

Kd (McinOBP4-Wt [1]; [5])	IC50 (McinOBP4-Wt [1]; [6])	Compound	IC50 (McinOBP4-Wt [1])	Kd (McinOBP4-Wt [1])	also measured
19.1 µM	24.5 µM	C=C1CC/C=C(\C)CC[C@@H]2[C@@H]1CC2(C)C (relative stereo) [Trans Caryophelle]			
19.8 µM	25.4 µM	C=CC(O)CC (centres unmarked) [1-Penten-3-ol]			
36.6 µM	47 µM	CCCCC(C)CC(C)C (centres unmarked) [2,4 Dimethyl Octane]			
15.7 µM	20.1 µM	CCCCCc1ccco1 [2-Pentylfuran]			
21.3 µM	27.4 µM	C=C/C(C)=C/C/C=C(\C)CCC=C(C)C [Farnsene]			
13 µM	16.8 µM	CCCCCCC=O [Heptanal]			
17.9 µM	23 µM	C=CC(=C)CCC=C(C)C [Myrcene]			
12.5 µM	16.1 µM	CCCCCCCCC=O [Nonanal]			
12.8 µM	16.5 µM	CCCCCC/C=C/C=O [Trans-2-Nonenal]			
